Each structure is given as a SMILES string.

Assay in all cases: KINOMEscan
Format in all cases: binding

The target in one experiment is T1, ABL1-phosphorylated (Homo sapiens, UniProt P00519).
T1 construct: purchased Eurofins DiscoverX, LLC; host or cells: E. coli BL21-derived (T7 phage) or HEK-293
As for the experimental part: (§1) The kinase inhibition profile of compounds 94 and 95 was assessed against 103 protein kinases by Eurofins DiscoverX, LLC., using the KINOMEscan assay. Kinase-tagged T7 phage strains were grown in parallel in 24-well blocks in an E. coli host derived from the BL21 strain. E. coli were grown to log-phase and infected with T7 phage from a frozen stock (multiplicity of infection = 0.4) and incubated with shaking at 32 °C until lysis (90–150 min). The lysates were centrifuged (6000g) and filtered (0.2 μm) to remove cell debris. The remaining kinases were produced in HEK-293 cells and subsequently tagged with DNA for qPCR detection. […] The liganded beads were blocked with excess biotin and washed with blocking buffer (SeaBlock (Pierce), 1% BSA, 0.05% Tween 20, 1 mM DTT) to remove unbound ligand and to reduce nonspecific phage binding. […] Test compounds were prepared as 100× stocks in 100% DMSO and directly diluted into the assay. All reactions were performed in polypropylene 384-well plates in a final volume of 0.02 mL. […] The kinase concentration in the eluates was measured by qPCR.
(§2) The compound(s) were screened at the concentration(s) requested, and results for primary screen binding interactions are reported as RA (%), where lower numbers indicate stronger hits in the matrix. RA=(testcompoundsignal−PCsignal/NCsignal−PCsignal)×100

The target of the next experiment is T2, AKT1 (Homo sapiens, UniProt P31749).
T2 construct: purchased Eurofins DiscoverX, LLC; host or cells: E. coli BL21-derived (T7 phage) or HEK-293
As for the experimental part: as §1, §2

The target of another experiment is T3, AURKB (Homo sapiens, UniProt Q96GD4).
T3 construct: purchased Eurofins DiscoverX, LLC; host or cells: E. coli BL21-derived (T7 phage) or HEK-293
Here is the method:
as §1, §2

Another experiment has as its target T4, CDK7 (Homo sapiens, UniProt P50613).
T4 construct: purchased Eurofins DiscoverX, LLC; host or cells: E. coli BL21-derived (T7 phage) or HEK-293
Here is the method:
as §1, §2

The target in the next experiment is T5, CSNK1D (Homo sapiens, UniProt P48730).
T5 construct: purchased Eurofins DiscoverX, LLC; host or cells: E. coli (T7 phage) or HEK-293
As for the experimental part:
as §1, §2

The target in the next experiment is T6, ERK 2 (Homo sapiens, UniProt P28482).
T6 construct: purchased Eurofins DiscoverX, LLC; host or cells: E. coli (T7 phage) or HEK-293
As for the experimental part:
as §1, §2

Another experiment has as its target T7, ERK1 (Homo sapiens, UniProt P27361).
T7 construct: purchased Eurofins DiscoverX, LLC; host or cells: E. coli (T7 phage) or HEK-293
Here is the method: as §1, §2

The next experiment deals with T8, FLT3 (Homo sapiens, UniProt P36888).
T8 construct: purchased Eurofins DiscoverX, LLC; host or cells: E. coli (T7 phage) or HEK-293
T8 sequence (P36888 27-993): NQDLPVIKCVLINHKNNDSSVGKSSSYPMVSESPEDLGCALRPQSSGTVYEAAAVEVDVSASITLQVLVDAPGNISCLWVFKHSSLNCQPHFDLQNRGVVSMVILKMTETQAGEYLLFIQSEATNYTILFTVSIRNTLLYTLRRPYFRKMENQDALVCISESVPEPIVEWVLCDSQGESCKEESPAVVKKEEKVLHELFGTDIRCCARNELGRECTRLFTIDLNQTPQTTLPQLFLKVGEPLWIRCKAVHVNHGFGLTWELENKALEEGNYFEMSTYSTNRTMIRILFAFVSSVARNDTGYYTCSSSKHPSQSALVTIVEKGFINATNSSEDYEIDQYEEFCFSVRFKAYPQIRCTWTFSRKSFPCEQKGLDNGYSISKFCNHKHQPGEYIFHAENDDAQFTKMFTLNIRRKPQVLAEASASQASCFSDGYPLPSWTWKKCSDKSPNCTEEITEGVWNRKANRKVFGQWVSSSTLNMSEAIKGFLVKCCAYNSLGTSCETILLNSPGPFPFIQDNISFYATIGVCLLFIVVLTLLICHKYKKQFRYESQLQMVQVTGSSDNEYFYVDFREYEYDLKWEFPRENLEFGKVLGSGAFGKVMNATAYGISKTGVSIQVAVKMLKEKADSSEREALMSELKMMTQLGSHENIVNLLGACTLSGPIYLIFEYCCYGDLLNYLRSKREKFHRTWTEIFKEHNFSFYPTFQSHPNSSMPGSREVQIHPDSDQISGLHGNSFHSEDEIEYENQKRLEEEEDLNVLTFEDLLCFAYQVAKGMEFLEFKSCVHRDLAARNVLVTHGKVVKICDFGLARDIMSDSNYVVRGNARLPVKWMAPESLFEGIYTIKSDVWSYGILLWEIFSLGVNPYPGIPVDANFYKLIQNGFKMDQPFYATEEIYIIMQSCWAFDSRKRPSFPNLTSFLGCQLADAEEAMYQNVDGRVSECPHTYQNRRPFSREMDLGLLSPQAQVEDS
As for the experimental part: as §1, §2

The target in another experiment is T9, IGF1R (Homo sapiens, UniProt P08069).
T9 construct: purchased Eurofins DiscoverX, LLC; host or cells: E. coli (T7 phage) or HEK-293
Here is the method:
as §1, §2

In the next experiment the target is T10, ZAP70 (Homo sapiens, UniProt P43403).
T10 construct: purchased Eurofins DiscoverX, LLC; host or cells: E. coli BL21-derived host (T7 phage) or HEK-293
T10 sequence (P43403 1-619): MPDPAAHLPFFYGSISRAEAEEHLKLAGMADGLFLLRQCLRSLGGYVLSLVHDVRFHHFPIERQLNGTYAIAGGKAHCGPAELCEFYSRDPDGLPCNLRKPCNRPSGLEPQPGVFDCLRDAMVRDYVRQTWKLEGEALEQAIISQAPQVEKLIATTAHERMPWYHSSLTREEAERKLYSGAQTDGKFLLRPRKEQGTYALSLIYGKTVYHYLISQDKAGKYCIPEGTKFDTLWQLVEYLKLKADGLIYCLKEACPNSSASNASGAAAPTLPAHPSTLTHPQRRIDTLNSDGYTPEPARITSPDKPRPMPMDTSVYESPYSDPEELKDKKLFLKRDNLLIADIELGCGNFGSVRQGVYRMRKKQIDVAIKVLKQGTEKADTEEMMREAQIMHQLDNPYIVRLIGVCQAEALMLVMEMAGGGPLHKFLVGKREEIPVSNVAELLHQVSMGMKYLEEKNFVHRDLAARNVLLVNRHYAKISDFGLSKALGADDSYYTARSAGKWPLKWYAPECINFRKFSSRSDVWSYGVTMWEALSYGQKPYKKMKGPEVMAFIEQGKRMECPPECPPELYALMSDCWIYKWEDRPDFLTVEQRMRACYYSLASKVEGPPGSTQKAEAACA
Here is the method: as §1, §2

T4 sequence (P50613 whole entry): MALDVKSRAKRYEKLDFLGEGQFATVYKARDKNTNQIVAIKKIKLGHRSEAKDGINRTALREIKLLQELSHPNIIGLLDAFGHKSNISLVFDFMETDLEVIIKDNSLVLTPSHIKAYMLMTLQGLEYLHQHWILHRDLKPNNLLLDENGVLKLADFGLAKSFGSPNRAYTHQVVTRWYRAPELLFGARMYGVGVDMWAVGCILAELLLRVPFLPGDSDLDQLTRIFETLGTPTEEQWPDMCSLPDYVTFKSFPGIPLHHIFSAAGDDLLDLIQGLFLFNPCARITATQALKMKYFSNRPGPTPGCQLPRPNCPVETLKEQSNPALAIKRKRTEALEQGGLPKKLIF
T6 sequence (P28482 whole entry): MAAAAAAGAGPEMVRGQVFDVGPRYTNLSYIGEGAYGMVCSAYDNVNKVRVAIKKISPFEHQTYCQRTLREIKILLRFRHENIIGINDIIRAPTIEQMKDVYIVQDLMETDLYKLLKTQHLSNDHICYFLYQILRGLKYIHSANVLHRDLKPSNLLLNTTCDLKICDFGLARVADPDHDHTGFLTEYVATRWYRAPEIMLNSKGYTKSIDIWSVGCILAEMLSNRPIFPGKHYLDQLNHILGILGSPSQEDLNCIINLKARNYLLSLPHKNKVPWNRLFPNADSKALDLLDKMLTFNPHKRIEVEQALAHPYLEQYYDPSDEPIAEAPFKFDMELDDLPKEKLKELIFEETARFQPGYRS
T5 sequence (P48730 whole entry): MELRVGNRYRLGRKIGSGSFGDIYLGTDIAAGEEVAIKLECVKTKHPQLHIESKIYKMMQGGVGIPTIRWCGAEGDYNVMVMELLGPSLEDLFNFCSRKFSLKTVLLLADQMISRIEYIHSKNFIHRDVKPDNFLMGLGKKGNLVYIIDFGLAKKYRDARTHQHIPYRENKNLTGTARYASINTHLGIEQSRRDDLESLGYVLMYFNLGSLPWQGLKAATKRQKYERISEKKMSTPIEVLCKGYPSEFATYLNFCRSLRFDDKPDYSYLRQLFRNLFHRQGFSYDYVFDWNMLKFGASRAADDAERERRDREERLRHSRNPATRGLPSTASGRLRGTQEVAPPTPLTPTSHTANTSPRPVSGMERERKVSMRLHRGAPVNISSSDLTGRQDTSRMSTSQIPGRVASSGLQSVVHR
T9 sequence (P08069 31-1367): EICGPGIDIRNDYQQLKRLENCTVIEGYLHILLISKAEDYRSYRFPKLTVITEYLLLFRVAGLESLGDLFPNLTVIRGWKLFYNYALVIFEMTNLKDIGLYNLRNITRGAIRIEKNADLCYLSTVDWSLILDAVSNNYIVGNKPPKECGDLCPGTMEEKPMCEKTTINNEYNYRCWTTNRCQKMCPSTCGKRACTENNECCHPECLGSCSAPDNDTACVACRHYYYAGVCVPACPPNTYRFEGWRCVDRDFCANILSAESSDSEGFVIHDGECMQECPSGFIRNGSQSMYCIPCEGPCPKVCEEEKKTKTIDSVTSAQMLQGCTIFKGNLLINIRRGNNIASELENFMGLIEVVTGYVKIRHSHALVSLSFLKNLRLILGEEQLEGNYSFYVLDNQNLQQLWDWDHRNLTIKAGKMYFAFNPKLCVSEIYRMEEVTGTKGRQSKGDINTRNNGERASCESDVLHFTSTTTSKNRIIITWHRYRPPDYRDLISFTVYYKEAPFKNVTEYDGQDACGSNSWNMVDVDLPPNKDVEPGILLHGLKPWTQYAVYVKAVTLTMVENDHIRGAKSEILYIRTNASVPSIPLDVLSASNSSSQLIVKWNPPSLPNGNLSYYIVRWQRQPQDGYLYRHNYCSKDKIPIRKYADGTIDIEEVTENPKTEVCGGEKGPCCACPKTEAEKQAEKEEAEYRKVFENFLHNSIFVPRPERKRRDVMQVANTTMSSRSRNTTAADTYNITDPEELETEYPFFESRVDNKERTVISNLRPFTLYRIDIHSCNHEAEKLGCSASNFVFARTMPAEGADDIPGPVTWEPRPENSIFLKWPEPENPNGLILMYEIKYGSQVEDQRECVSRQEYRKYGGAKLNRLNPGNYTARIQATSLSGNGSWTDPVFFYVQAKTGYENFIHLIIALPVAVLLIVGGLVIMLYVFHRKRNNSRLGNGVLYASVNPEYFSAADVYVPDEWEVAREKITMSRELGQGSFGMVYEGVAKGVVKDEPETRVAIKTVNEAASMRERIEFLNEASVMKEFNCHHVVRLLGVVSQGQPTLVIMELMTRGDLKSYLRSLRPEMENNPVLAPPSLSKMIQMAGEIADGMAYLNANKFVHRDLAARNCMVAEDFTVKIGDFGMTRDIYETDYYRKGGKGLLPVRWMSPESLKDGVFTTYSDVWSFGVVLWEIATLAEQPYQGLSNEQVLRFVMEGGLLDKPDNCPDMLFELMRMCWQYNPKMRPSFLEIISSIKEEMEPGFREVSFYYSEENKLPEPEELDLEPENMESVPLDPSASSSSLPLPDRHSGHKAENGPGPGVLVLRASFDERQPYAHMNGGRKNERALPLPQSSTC
T3 sequence (Q96GD4 whole entry): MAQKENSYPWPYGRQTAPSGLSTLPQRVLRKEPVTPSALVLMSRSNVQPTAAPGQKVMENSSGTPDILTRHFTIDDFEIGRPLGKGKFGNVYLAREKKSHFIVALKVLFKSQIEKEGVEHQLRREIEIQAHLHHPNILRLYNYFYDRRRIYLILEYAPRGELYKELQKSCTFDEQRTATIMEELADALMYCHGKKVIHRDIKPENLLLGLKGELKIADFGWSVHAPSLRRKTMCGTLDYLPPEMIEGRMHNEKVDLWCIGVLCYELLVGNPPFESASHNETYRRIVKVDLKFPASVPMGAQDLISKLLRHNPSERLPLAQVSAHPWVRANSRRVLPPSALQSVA
T7 sequence (P27361 whole entry): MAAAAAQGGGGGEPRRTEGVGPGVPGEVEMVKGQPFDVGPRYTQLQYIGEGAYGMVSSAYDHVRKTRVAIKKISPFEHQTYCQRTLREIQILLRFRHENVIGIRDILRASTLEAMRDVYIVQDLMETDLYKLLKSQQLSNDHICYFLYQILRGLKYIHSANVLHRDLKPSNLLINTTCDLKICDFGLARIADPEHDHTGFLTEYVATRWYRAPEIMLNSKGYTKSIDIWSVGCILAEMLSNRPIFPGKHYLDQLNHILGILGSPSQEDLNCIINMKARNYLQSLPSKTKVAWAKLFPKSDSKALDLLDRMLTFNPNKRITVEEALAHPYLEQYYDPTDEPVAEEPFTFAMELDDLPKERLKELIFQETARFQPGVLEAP
T2 sequence (P31749 whole entry): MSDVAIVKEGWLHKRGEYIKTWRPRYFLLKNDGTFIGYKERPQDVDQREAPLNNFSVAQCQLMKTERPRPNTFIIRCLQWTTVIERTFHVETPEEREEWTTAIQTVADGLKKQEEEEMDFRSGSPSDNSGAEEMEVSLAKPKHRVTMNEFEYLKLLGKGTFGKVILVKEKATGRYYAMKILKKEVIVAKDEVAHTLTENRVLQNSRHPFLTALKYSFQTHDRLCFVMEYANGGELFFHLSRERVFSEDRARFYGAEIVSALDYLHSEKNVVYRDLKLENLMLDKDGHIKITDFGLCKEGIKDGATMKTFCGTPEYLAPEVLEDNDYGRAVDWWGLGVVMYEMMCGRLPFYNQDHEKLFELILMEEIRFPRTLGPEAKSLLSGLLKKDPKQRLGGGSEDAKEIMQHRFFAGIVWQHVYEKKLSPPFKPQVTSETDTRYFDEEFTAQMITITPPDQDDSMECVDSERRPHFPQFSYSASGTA
T1 sequence (P00519 whole entry): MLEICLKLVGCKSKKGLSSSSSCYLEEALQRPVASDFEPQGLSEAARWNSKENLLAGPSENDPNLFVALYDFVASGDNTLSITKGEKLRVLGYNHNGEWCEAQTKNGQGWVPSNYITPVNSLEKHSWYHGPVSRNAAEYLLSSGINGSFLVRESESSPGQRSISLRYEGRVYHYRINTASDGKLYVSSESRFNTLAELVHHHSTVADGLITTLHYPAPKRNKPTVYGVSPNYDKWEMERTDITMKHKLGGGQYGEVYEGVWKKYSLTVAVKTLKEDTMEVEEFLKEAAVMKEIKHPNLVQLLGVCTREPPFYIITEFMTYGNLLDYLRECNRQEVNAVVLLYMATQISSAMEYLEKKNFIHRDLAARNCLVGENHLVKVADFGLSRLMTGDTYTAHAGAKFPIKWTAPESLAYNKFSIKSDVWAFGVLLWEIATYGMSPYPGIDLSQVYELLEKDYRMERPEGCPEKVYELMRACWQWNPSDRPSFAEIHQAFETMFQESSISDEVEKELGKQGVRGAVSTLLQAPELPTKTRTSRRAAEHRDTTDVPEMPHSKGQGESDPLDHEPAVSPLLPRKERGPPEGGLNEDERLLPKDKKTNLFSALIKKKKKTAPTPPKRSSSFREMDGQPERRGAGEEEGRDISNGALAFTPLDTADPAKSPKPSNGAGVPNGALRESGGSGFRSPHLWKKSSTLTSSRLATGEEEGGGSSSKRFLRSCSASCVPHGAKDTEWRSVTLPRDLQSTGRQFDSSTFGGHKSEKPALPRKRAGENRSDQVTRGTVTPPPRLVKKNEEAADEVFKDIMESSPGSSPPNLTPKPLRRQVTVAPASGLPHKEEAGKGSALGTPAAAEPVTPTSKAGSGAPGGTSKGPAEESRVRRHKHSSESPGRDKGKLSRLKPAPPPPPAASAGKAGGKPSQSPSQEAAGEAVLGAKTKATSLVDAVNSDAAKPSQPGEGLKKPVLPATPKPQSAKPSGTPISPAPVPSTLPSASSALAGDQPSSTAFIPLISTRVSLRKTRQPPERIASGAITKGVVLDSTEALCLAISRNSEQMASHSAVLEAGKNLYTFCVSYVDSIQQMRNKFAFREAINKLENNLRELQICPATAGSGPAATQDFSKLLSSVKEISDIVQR

For `CN(C)CCNC(=O)c1cc2c(cnn2CC2CCCCC2)cc1Cc1ccc(F)cc1F` [Compound 95, 1-(Cyclohexylmethyl)-5-(2,4-difluorobenzyl)-N-(2-(dimethylamino)ethyl)-1H-indazole-6-carboxamide], the “RA @ 1000nM” value came out at 81% at ABL1-phosphorylated; 100% at AKT1; 99% at AURKB; 88% at CDK7; 93% at CSNK1D; 100% on ERK 2. Also, the “RA @ 1000nM” value at ERK1 was 96%; on FLT3, 100%; at IGF1R it was 100%; at ZAP70, 100%. Further, the “RA @ 10000nM” value at ABL1-phosphorylated is given as 85%; on AKT1 it was 100%; on AURKB it was 71%; on CDK7, 77%; at CSNK1D, 84%; on ERK 2 it was 100%. In addition, the “RA @ 10000nM” value is on record as 90% on ERK1, 100% on FLT3, 93% on IGF1R and 100% on ZAP70.
As for `CC(C)Cn1ncc2cc(Cc3ccc(F)cc3F)c(C(=O)NCCN(C)C)cc21` [Compound 94, 5-(2,4-Difluorobenzyl)-N-(2-(dimethylamino)ethyl)-1-isobutyl-1H-indazole-6-carboxamide], the “RA @ 1000nM” value on ABL1-phosphorylated was determined as 79%; at AKT1 it was 100%; at AURKB, 84%; at CDK7, 79%; at CSNK1D it was 86%; at ERK 2 it was 100%. For the same molecule, the “RA @ 1000nM” value came out at 87% at ERK1, 100% on FLT3, 94% at IGF1R and 100% at ZAP70. In addition, the “RA @ 10000nM” value on ABL1-phosphorylated worked out at 53%; on AKT1, 75%; at AURKB, 68%; on CDK7, 86%; on CSNK1D, 79%; on ERK 2, 98%. Moreover, the “RA @ 10000nM” value at ERK1 amounted to 87%; on FLT3, 90%; on IGF1R, 84%; at ZAP70, 79%.
